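Exposure lasted 48 hours, with cells grown in 96-well plates and compounds tested at five concentrations. TGI is the concentration that stops growth completely.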
Tests used:
Test in all cases: NCI-60 cell line screen, 48 h
KM12 colon = tested on: KM12 colon
COLO 205 colon = tested on: COLO 205 colon
SK-MEL-2 melanoma = tested on: SK-MEL-2 melanoma
OVCAR-3 ovarian = tested on: OVCAR-3 ovarian
IGROV1 ovarian = tested on: IGROV1 ovarian
NCI/ADR-RES ovarian = tested on: NCI/ADR-RES ovarian
NCI-H23 lung = tested on: NCI-H23 lung
HCT-15 colon = tested on: HCT-15 colon
MOLT-4 leukemia = tested on: MOLT-4 leukemia
CCRF-CEM leukemia = tested on: CCRF-CEM leukemia
SK-OV-3 ovarian = tested on: SK-OV-3 ovarian

SMILES | TGI (KM12 colon) [µM] | TGI (COLO 205 colon) [µM] | TGI (SK-MEL-2 melanoma) [µM] | TGI (OVCAR-3 ovarian) [µM] | TGI (IGROV1 ovarian) [µM] | TGI (NCI/ADR-RES ovarian) [µM] | TGI (NCI-H23 lung) [µM] | TGI (HCT-15 colon) [µM] | TGI (MOLT-4 leukemia) [µM] | TGI (CCRF-CEM leukemia) [µM] | TGI (SK-OV-3 ovarian) [µM]
CC1(C)NC2C(=O)c3c([nH]c4ccccc34)[C@]3(C)CCC1CC23 (some centres not stated) | > 100 | > 100 | > 100 | > 100 | > 100 | > 100 | > 100 | > 100 | > 100 | > 100 | –
CCOC(=O)c1nc2ccc(C(F)(F)F)cc2nc1NCc1cc(OC)c(OC)c(OC)c1 | > 100 | 73.4 | > 100 | > 100 | > 100 | > 100 | > 100 | > 100 | > 100 | – | –
COc1ccc2ccccc2c1/C=C/C(=O)c1ccccc1 | 8 | 9.76 | 3.64 | 7.23 | 16.2 | > 54.8 | 9.69 | > 35.8 | 6.78 | 4.17 | 11.2
CC(=O)OC(/C=C/c1ccccc1)=C(OC(C)C)/C1=C(\c2ccccc2)SCCCSC1=O | > 100 | > 100 | > 100 | > 100 | – | > 100 | > 100 | > 100 | > 100 | > 100 | > 100
CC1OC(OC2C(O[C@H]3CC[C@@]4(C)C(=CC[C@H]5[C@@H]6C[C@@H]7O[C@]8(CC[C@@H](CO)CO8)[C@@H](C)[C@@H]7[C@@]6(C)CC[C@@H]54)C3)OC(CO)C(O)C2OC2OC(CO)C(O)C(O)C2O)C(O)C(O)C1O (some centres not stated) | 3.57 | 3.42 | 3.7 | – | 4.05 | 3.76 | 4.07 | 3.94 | – | – | 4.19
C=CCCN1CCc2c([nH]c3ccccc23)C1C(=O)O (configuration not stated) | > 100 | > 100 | > 100 | > 100 | > 100 | – | > 100 | – | > 100 | > 100 | > 100
O=P(Nc1ccc(Cl)cc1)(Oc1ccccc1)N(CCCl)CCCl (configuration not stated) | > 100 | > 100 | > 100 | > 100 | > 100 | – | > 100 | > 100 | > 100 | > 100 | > 100
NN/C(=N\S(=O)(=O)c1cc2ccccc2s1)Nc1ccc(Cl)cc1 | 48.1 | 33 | 34.5 | 34.5 | 36.4 | 46.4 | 41.4 | > 100 | 68 | – | > 100
O=C1CSC(c2cccc(Oc3ccccc3)c2)N1c1ccc(Cl)cc1 (configuration not stated) | > 100 | 35.5 | 40.2 | > 100 | – | > 100 | > 100 | > 100 | 56.1 | > 100 | > 100
OCC(O)COCn1nncc1Cn1ncc2c(SCc3ccccc3)ncnc21 (configuration not stated) | > 100 | > 100 | > 100 | > 100 | > 100 | > 100 | > 100 | > 100 | – | > 100 | > 100

Reference: PubChem BioAssay (NCI)
